Values after ≈ are worked out from the molar mass of the structure shown. Active and inactive are the calls of the source. The rule behind the calls is not given here.
Legend:
Candida albicans [1] = assay: Antimicrobial activity against Candida albicans MTCC 183 by agar streak dilution method; type: functional
Aspergillus niger [2] = assay: Antimicrobial activity against Aspergillus niger MTCC 282 by paper-disk diffusion method; type: functional
Shigella flexneri [3] = assay: Antimicrobial activity against Shigella flexneri MTCC 1457 at 100 ug/ml by paper-disk diffusion method; type: functional, organism-based
Proteus vulgaris [4] = assay: Antimicrobial activity against Proteus vulgaris MTCC 1771 by paper disk diffusion method; type: functional
Salmonella typhi [5] = assay: Antimicrobial activity against Salmonella enterica subsp. enterica serovar Typhi MTCC 733 by paper disk diffusion method; type: functional
Klebsiella pneumoniae [6] = assay: Antimicrobial activity against Klebsiella pneumoniae MTCC 109 by paper disk diffusion method; type: functional
Pseudomonas aeruginosa [7] = assay: Antimicrobial activity against Pseudomonas aeruginosa MTCC 741 by paper disk diffusion method; type: functional
Bacillus cereus [8] = assay: Antimicrobial activity against Bacillus cereus MTCC 619 by paper disk diffusion method; type: functional
Escherichia coli [9] = assay: Antimicrobial activity against Escherichia coli MTCC 739 by paper disk diffusion method; type: functional
Staphylococcus aureus [10] = assay: Antimicrobial activity against Staphylococcus aureus MTCC 96 by paper-disk diffusion method; type: functional
Aspergillus niger [11] = assay: Antimicrobial activity against Aspergillus niger MTCC 282 by agar streak dilution method; type: functional
Proteus vulgaris [12] = assay: Antimicrobial activity against Proteus vulgaris MTCC 1771 by agar streak dilution method; type: functional
Klebsiella pneumoniae [13] = assay: Antimicrobial activity against Klebsiella pneumoniae MTCC 109 by agar streak dilution method; type: functional
Salmonella typhi [14] = assay: Antimicrobial activity against Salmonella enterica subsp. enterica serovar Typhi MTCC 733 by agar streak dilution method; type: functional
Pseudomonas aeruginosa [15] = assay: Antimicrobial activity against Pseudomonas aeruginosa MTCC 741 by agar streak dilution method; type: functional
Staphylococcus aureus [16] = assay: Antimicrobial activity against Staphylococcus aureus MTCC 96 by agar streak dilution method; type: functional
Bacillus cereus [17] = assay: Antimicrobial activity against Bacillus cereus MTCC 619 by agar streak dilution method; type: functional
[18] = system: Mycobacterium tuberculosis; assay: Antimicrobial activity against Mycobacterium tuberculosis H37Rv at 100 ug/ml by BACTEC MGIT method; type: functional, organism-based
Escherichia coli [19] = assay: Antimicrobial activity against Escherichia coli MTCC 739 by agar streak dilution method; type: functional
[20] = system: Mycobacterium tuberculosis; assay: Antimicrobial activity against Mycobacterium tuberculosis H37Rv by Lowenstein and Jensen method; type: functional; details: for MIC: Mycobacterium tuberculosis, H37Rv
[21] = system: Mycobacterium tuberculosis; assay: Antimicrobial activity against Mycobacterium tuberculosis H37Rv by BACTEC MGIT method; type: functional; details: Mycobacterium tuberculosis, H37Rv
Aspergillus fumigatus [22] = assay: Antimicrobial activity against Aspergillus fumigatus MTCC 343 at 100 ug/ml by paper-disk diffusion method; type: functional, organism-based
Aspergillus clavatus [23] = assay: Antimicrobial activity against Aspergillus clavatus MTCC 1323 at 100 ug/ml by paper disk diffusion method; type: functional, organism-based
Candida albicans [24] = assay: Antimicrobial activity against Candida albicans MTCC 183 by paper-disk diffusion method; type: functional
Aspergillus clavatus [25] = assay: Antimicrobial activity against Aspergillus clavatus MTCC 1323 by paper disk diffusion method; type: functional
Aspergillus fumigatus [26] = assay: Antimicrobial activity against Aspergillus fumigatus MTCC 343 by paper-disk diffusion method; type: functional
Pseudomonas aeruginosa [27] = assay: Antimicrobial activity against Pseudomonas aeruginosa MTCC 741 at 100 ug/ml by paper disk diffusion method; type: functional, organism-based
Shigella flexneri [28] = assay: Antimicrobial activity against Shigella flexneri MTCC 1457 by paper disk diffusion method; type: functional
Aspergillus clavatus [29] = assay: Antimicrobial activity against Aspergillus clavatus MTCC 1323 by agar streak dilution method; type: functional
Aspergillus fumigatus [30] = assay: Antimicrobial activity against Aspergillus fumigatus MTCC 343 by agar streak dilution method; type: functional
Shigella flexneri [31] = assay: Antimicrobial activity against Shigella flexneri MTCC 1457 by agar streak dilution method; type: functional

| SMILES | MIC (Candida albicans [1]) [µg/mL] | inhibition zone (IZ) (Aspergillus niger [2]) [mm] | inhibition zone (IZ) (Proteus vulgaris [4]) [mm] | inhibition zone (IZ) (Salmonella typhi [5]) [mm] | inhibition zone (IZ) (Klebsiella pneumoniae [6]) [mm] | inhibition zone (IZ) (Pseudomonas aeruginosa [7]) [mm] | inhibition zone (IZ) (Bacillus cereus [8]) [mm] | inhibition zone (IZ) (Escherichia coli [9]) [mm] | inhibition zone (IZ) (Staphylococcus aureus [10]) [mm] | MIC (Aspergillus niger [11]) [µg/mL] | MIC (Proteus vulgaris [12]) [µg/mL] | MIC (Klebsiella pneumoniae [13]) [µg/mL] | MIC (Salmonella typhi [14]) [µg/mL] | MIC (Pseudomonas aeruginosa [15]) [µg/mL] | MIC (Staphylococcus aureus [16]) [µg/mL] | MIC (Bacillus cereus [17]) [µg/mL] | inhibition [18] | MIC (Escherichia coli [19]) [µg/mL] | inhibition (percent inhibition) [20] [%] | MIC [20] [µg/mL] | other results |
| --- | --- | --- | --- | --- | --- | --- | --- | --- | --- | --- | --- | --- | --- | --- | --- | --- | --- | --- | --- | --- | --- |
| N#Cc1ccc(Nc2nc(Oc3ncnc4ccccc34)nc(N3CCN(c4ncccn4)CC3)n2)cc1C(F)(F)F | 100 (≈ 175 µM) | 22 | 21 | 22 | 20 | 22 | 25 | 23 | 23 | 100 (≈ 175 µM) | 100 (≈ 175 µM) | 100 (≈ 175 µM) | 50 (≈ 87.5 µM) | 50 (≈ 87.5 µM) | 25 (≈ 43.7 µM) | 50 (≈ 87.5 µM) | inactive | 100 (≈ 175 µM) | 96 | 200 (≈ 350 µM) | inhibition zone (IZ) (Shigella flexneri [3]): inactive; MIC [21]: > 6.25 µg/mL; inhibition zone (IZ) (Aspergillus fumigatus [22]): inactive; inhibition zone (IZ) (Aspergillus clavatus [23]): inactive; inhibition zone (IZ) (Candida albicans [24]): 22 mm |
| CC(=O)N1CCN(c2nc(Nc3ccc(C#N)c(C(F)(F)F)c3)nc(Oc3ncnc4ccccc34)n2)CC1 | 50 (≈ 93.4 µM) | 24 | 25 | 24 | 25 | 27 | 26 | 28 | 27 | 25 (≈ 46.7 µM) | 12.5 (≈ 23.3 µM) | 12.5 (≈ 23.3 µM) | 25 (≈ 46.7 µM) | 12.5 (≈ 23.3 µM) | 12.5 (≈ 23.3 µM) | 6.25 (≈ 11.7 µM) | inactive | 6.25 (≈ 11.7 µM) | 96 | 12.5 (≈ 23.3 µM) | inhibition zone (IZ) (Aspergillus clavatus [25]): 24 mm; inhibition zone (IZ) (Aspergillus fumigatus [26]): 24 mm; inhibition zone (IZ) (Pseudomonas aeruginosa [27]): inactive; inhibition zone (IZ) (Shigella flexneri [28]): 22 mm; MIC (Aspergillus clavatus [29]): 12.5 µg/mL (≈ 23.3 µM); MIC (Aspergillus fumigatus [30]): 25 µg/mL (≈ 46.7 µM); MIC (Shigella flexneri [31]): 100 µg/mL (≈ 187 µM); MIC [21]: > 6.25 µg/mL; inhibition zone (IZ) (Candida albicans [24]): 24 mm |
| COc1ccc(N2CCN(c3nc(Nc4ccc(C#N)c(C(F)(F)F)c4)nc(Oc4ncnc5ccccc45)n3)CC2)cc1 | 12.5 (≈ 20.8 µM) | 25 | 26 | 25 | 25 | 27 | 25 | 28 | 27 | 6.25 (≈ 10.4 µM) | 6.25 (≈ 10.4 µM) | 12.5 (≈ 20.8 µM) | 25 (≈ 41.7 µM) | 12.5 (≈ 20.8 µM) | 6.25 (≈ 10.4 µM) | 6.25 (≈ 10.4 µM) | inactive | 6.25 (≈ 10.4 µM) | 99 | 25 (≈ 41.7 µM) | inhibition zone (IZ) (Aspergillus clavatus [25]): 25 mm; inhibition zone (IZ) (Aspergillus fumigatus [26]): 25 mm; inhibition zone (IZ) (Pseudomonas aeruginosa [27]): inactive; inhibition zone (IZ) (Shigella flexneri [28]): 23 mm; MIC (Aspergillus clavatus [29]): 6.25 µg/mL (≈ 10.4 µM); MIC (Aspergillus fumigatus [30]): 6.25 µg/mL (≈ 10.4 µM); MIC (Shigella flexneri [31]): 50 µg/mL (≈ 83.4 µM); MIC [21]: > 6.25 µg/mL; inhibition zone (IZ) (Candida albicans [24]): 25 mm |
| CC(C)N1CCN(c2nc(Nc3ccc(C#N)c(C(F)(F)F)c3)nc(Oc3ncnc4ccccc34)n2)CC1 | 50 (≈ 93.4 µM) | 22 | 24 | 23 | 22 | 24 | 23 | 27 | 25 | 100 (≈ 187 µM) | 25 (≈ 46.7 µM) | 50 (≈ 93.4 µM) | 50 (≈ 93.4 µM) | 12.5 (≈ 23.3 µM) | 25 (≈ 46.7 µM) | 50 (≈ 93.4 µM) | inactive | 12.5 (≈ 23.3 µM) | 97 | 50 (≈ 93.4 µM) | inhibition zone (IZ) (Aspergillus clavatus [25]): 23 mm; inhibition zone (IZ) (Aspergillus fumigatus [26]): 23 mm; inhibition zone (IZ) (Shigella flexneri [3]): inactive; MIC (Aspergillus clavatus [29]): 25 µg/mL (≈ 46.7 µM); MIC (Aspergillus fumigatus [30]): 50 µg/mL (≈ 93.4 µM); MIC [21]: > 6.25 µg/mL; inhibition zone (IZ) (Candida albicans [24]): 23 mm |

Source: ChEMBL document CHEMBL3044572, “Discovery of 2-(4-cyano-3-trifluoromethylphenyl amino)-4-(4-quinazolinyloxy)-6-piperazinyl(piperidinyl)-s-triazines as potential antibacterial agents” (2012)
